# Laboratory results taken from BindingDB's records for patent US11117900 (Vertex Pharmaceuticals, 2021).
# Biological target: Serine/threonine-protein kinase ATR (Homo sapiens, UniProt Q13535)
# Assay: Inhibition Assay
# Protocol: Compounds were screened for their ability to inhibit ATR kinase using a radioactive-phosphate incorporation assay. Assays were carried out in a mixture of 50 mM Tris/HCl (pH 7.5), 10 mM MgCl2 and 1 mM DTT. Final substrate concentrations were 10 μM [γ-33P]ATP (3 mCi 33P ATP/mmol ATP, Perkin Elmer) and 800 μM target peptide ([…]) (SEQ ID NO:1).Assays were carried out at 25° C. in the presence of 5 nM full-length ATR. An assay stock buffer solution was prepared containing all of the reagents listed above, with the exception of ATP and the test compound of interest. 13.5 μL of the stock solution was placed in a 96 well plate followed by addition of 2 μL of DMSO stock containing serial dilutions of the test compound (typically starting from a final concentration of 15 μM with 3-fold serial dilutions) in duplicate (final DMSO concentration 7%). The plate was pre-incubated for 10 minutes at 25° C. and the reaction initiated by addition of 15 μL [γ-33P]ATP (final concentration 10 μM).The reaction was stopped after 24 hours by the addition of […] containing 2 mM ATP. A multiscreen phosphocellulose filter 96-well plate (Millipore, Cat no. MAPHNOB50) was pretreated with 100 μL 0.2M phosphoric acid prior to the addition of […] of the stopped assay mixture. The plate was washed with 5×2004 0.2M phosphoric acid. […]
# Sequence of Serine/threonine-protein kinase ATR (Q13535 whole entry): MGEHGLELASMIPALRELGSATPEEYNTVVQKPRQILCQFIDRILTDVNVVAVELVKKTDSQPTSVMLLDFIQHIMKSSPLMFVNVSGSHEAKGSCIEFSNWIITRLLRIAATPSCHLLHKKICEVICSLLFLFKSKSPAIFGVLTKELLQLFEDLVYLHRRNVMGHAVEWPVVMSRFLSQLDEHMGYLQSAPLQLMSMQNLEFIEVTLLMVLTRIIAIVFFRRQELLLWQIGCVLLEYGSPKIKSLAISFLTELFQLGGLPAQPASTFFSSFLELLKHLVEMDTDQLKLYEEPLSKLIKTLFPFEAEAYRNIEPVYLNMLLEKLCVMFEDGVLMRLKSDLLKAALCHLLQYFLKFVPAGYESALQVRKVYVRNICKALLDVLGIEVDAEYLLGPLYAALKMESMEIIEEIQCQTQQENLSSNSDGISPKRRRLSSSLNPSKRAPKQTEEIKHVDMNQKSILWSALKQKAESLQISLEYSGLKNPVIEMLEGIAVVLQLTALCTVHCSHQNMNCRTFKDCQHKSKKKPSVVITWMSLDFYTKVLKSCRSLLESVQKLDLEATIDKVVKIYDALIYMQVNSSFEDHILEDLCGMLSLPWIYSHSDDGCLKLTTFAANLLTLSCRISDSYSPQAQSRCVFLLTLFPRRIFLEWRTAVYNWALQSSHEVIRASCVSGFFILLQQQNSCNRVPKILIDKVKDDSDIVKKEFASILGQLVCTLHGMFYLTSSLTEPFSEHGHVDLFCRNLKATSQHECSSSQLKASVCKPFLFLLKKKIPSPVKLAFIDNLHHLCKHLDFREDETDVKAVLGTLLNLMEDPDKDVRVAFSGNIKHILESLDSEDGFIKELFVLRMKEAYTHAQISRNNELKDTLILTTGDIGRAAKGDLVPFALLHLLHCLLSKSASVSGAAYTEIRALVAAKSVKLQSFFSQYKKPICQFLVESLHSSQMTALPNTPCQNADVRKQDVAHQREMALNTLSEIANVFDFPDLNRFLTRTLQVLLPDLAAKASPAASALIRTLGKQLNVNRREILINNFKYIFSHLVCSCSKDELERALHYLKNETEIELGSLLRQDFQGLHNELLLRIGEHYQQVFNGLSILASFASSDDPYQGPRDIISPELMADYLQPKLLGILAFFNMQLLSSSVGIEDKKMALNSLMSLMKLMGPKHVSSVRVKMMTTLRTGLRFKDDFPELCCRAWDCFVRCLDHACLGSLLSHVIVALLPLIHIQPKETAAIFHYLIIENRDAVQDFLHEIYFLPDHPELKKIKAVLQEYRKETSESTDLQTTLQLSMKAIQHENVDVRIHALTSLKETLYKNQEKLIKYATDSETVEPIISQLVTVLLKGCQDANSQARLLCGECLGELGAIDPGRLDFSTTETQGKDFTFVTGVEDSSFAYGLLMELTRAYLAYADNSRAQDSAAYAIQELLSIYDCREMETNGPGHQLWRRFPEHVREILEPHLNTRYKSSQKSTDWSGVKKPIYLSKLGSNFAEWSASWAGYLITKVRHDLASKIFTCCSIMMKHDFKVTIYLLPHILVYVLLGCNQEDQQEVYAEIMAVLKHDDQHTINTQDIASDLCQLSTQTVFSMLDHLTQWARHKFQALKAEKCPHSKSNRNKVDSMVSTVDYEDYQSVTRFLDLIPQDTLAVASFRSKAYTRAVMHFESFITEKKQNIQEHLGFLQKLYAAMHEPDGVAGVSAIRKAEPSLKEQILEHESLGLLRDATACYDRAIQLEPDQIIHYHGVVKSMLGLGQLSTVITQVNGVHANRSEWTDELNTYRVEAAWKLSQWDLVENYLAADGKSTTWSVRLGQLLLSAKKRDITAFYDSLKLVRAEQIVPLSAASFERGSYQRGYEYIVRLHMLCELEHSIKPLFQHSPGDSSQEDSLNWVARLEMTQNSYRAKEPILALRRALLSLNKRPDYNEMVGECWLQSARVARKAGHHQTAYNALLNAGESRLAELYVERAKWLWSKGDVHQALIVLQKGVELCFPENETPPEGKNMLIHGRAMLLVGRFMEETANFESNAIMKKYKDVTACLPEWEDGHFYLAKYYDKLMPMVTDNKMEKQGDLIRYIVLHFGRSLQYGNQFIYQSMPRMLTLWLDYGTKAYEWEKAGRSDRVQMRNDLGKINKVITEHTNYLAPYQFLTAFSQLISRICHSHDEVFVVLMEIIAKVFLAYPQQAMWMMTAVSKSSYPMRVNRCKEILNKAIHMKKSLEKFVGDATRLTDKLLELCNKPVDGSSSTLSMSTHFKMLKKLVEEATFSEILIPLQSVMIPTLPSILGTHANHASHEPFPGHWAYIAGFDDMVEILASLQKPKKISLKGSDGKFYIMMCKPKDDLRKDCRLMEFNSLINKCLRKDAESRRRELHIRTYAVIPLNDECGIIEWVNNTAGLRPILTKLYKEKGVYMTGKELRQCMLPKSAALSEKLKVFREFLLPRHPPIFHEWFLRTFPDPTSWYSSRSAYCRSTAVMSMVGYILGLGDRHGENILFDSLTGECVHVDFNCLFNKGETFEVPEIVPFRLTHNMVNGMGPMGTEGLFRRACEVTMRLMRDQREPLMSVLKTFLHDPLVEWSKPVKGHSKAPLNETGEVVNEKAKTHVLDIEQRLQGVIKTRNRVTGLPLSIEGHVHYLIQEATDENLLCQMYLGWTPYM
smiles,measurement,value
"C[N+]1([O-])CCCC(c2ccncc2NC(=O)c2c(N)nn3cc(F)cnc23)C1 (stereo unspecified) [US11117900, Compound I-C-9]",Ki,in the range around 0.505 µM
